According to ChEMBL document CHEMBL3046274, “Toxicity of imidacloprid to developmental stages of Rhynchophorus ferrugineus (Curculionidae: Coleoptera): Laboratory and field tests” (Crop Prot, 2006):
Calls of active or inactive are those of the source. The calls are words filed in the database; no cut-off is given here.

Columns and labels:
[1] = test system: Rhynchophorus ferrugineus; test: Pesticidal activity against Rhynchophorus ferrugineus (red palm weevil) cocoon assessed as mortality at 2 ppm administered by dipping for 3 min measured at 24 hr post-treatment relative to control; type: functional
[2] = test system: Rhynchophorus ferrugineus; test: Pesticidal activity against Rhynchophorus ferrugineus (red palm weevil) cocoon assessed as mortality at 20 ppm administered by dipping for 3 min measured at 24 hr post-treatment relative to control; type: functional
[3] = test system: Rhynchophorus ferrugineus; test: Pesticidal activity against Rhynchophorus ferrugineus (red palm weevil) larvae assessed as mortality at 0.5 ppm, po at 114 hr post-treatment relative to control; type: functional
[4] = test system: Rhynchophorus ferrugineus; test: Pesticidal activity against Rhynchophorus ferrugineus (red palm weevil) larvae assessed as mortality at 2 ppm, po at 114 hr post-treatment relative to control; type: functional
[5] = test system: Rhynchophorus ferrugineus; test: Pesticidal activity against Rhynchophorus ferrugineus (red palm weevil) larvae assessed as mortality at 2 ppm, po at 90 hr post-treatment relative to control; type: functional
[6] = test system: Rhynchophorus ferrugineus; test: Pesticidal activity against Rhynchophorus ferrugineus (red palm weevil) larvae assessed as mortality at 1.5 ppm, po at 72 hr post-treatment relative to control; type: functional
[7] = test system: Rhynchophorus ferrugineus; test: Pesticidal activity against Rhynchophorus ferrugineus (red palm weevil) larvae assessed as mortality at 4 ppm, po at 72 hr post-treatment relative to control; type: functional
[8] = test system: Rhynchophorus ferrugineus; test: Pesticidal activity against adult Rhynchophorus ferrugineus (red palm weevil) infested date palm tree assessed as mortality of collected live stage at 20 ml/4l of water applied through soil-drench irrigation measured after 3 weeks relative to control; type: functional
[9] = test system: Rhynchophorus ferrugineus; test: Pesticidal activity against Rhynchophorus ferrugineus (red palm weevil) larvae infested date palm tree assessed as mortality at 20 ml/4l of water applied through soil-drench irrigation measured after 3 weeks relative to control; type: functional
[10] = test system: Rhynchophorus ferrugineus; test: Pesticidal activity against adult Rhynchophorus ferrugineus (red palm weevil) assessed as mortality at 500 ppm administered topically at 36 hr post-treatment; type: functional
[11] = test system: Rhynchophorus ferrugineus; test: Pesticidal activity against Rhynchophorus ferrugineus (red palm weevil) cocoon assessed as mortality at 2 ppm administered by dipping for 3 min measured at 114 hr post-treatment relative to control; type: functional
[12] = test system: Rhynchophorus ferrugineus; test: Pesticidal activity against Rhynchophorus ferrugineus (red palm weevil) cocoon assessed as mortality at 4 ppm administered by dipping for 3 min measured at 114 hr post-treatment relative to control; type: functional
[13] = test system: Rhynchophorus ferrugineus; test: Pesticidal activity against Rhynchophorus ferrugineus (red palm weevil) cocoon assessed as mortality at 1.5 ppm administered by dipping for 3 min measured at 90 hr post-treatment relative to control; type: functional
[14] = test system: Rhynchophorus ferrugineus; test: Contact toxicity against Rhynchophorus ferrugineus (red palm weevil) adults assessed as time required for 100% mortality at 1.5 ml/l for 5 min; type: functional
[15] = test system: Rhynchophorus ferrugineus; test: Contact toxicity against Rhynchophorus ferrugineus (red palm weevil) adults assessed as time required for 50% mortality at 3.5 ml/l for 5 min; type: functional
[16] = test system: Rhynchophorus ferrugineus; test: Contact toxicity against Rhynchophorus ferrugineus (red palm weevil) adults assessed as time required for 100% reversible knockdown at 3.5 ml/l for 5 min; type: functional
[17] = test system: Rhynchophorus ferrugineus; test: Contact toxicity against Rhynchophorus ferrugineus (red palm weevil) adults assessed as time required for 100% reversible knockdown at 1.5 ml/l for 5 min; type: functional
[18] = test system: Rhynchophorus ferrugineus; test: Contact toxicity against Rhynchophorus ferrugineus (red palm weevil) adults assessed as time required for 50% mortality at 2.5 ml/l for 2 min; type: functional
[19] = test system: Rhynchophorus ferrugineus; test: Contact toxicity against Rhynchophorus ferrugineus (red palm weevil) adults assessed as time required for 100% reversible knockdown at 2.5 ml/l for 2 min; type: functional
[20] = test system: Rhynchophorus ferrugineus; test: Pesticidal activity against Rhynchophorus ferrugineus (red palm weevil) cocoon assessed as mortality of emerged adult at low concentration administered by dipping for 3 min measured up to 1 week after emergence; type: functional, organism-based
[21] = test system: Rhynchophorus ferrugineus; test: Pesticidal activity against Rhynchophorus ferrugineus (red palm weevil) cocoon assessed as mortality at 1 ppm administered by dipping for 3 min measured at 72 hr post-treatment relative to control; type: functional
[22] = test system: Rhynchophorus ferrugineus; test: Pesticidal activity against Rhynchophorus ferrugineus (red palm weevil) larvae infested date palm tree assessed as reduction in mandibles movement of collected live stage larvae at 20 ml/4l of water applied through soil-drench irrigation measured after 3 weeks relative to control; type: functional, organism-based
[23] = test system: Rhynchophorus ferrugineus; test: Pesticidal activity against Rhynchophorus ferrugineus (red palm weevil) cocoon assessed as mortality at 1.5 ppm administered by dipping for 3 min measured at 48 hr post-treatment relative to control; type: functional
[24] = test system: Rhynchophorus ferrugineus; test: Pesticidal activity against Rhynchophorus ferrugineus (red palm weevil) cocoon assessed as mortality at 20 ppm administered by dipping for 3 min measured at 48 hr post-treatment relative to control; type: functional
[25] = test system: Rhynchophorus ferrugineus; test: Pesticidal activity against adult Rhynchophorus ferrugineus (red palm weevil) assessed as mortality at 0.5 ppm, po at 48 hr post-treatment relative to control; type: functional
[26] = test system: Rhynchophorus ferrugineus; test: Pesticidal activity against Rhynchophorus ferrugineus (red palm weevil) larvae assessed as mortality at 2 ppm, po at 24 hr post-treatment relative to control; type: functional
[27] = test system: Rhynchophorus ferrugineus; test: Pesticidal activity against Rhynchophorus ferrugineus (red palm weevil) larvae assessed as mortality at 0.5 ppm, po at 18 hr post-treatment relative to control; type: functional
[28] = test system: Rhynchophorus ferrugineus; test: Pesticidal activity against Rhynchophorus ferrugineus (red palm weevil) larvae assessed as mortality at 1 ppm, po at 18 hr post-treatment relative to control; type: functional
[29] = test system: Rhynchophorus ferrugineus; test: Pesticidal activity against Rhynchophorus ferrugineus (red palm weevil) larvae assessed as mortality at 2 ppm, po at 18 hr post-treatment relative to control; type: functional
[30] = test system: Rhynchophorus ferrugineus; test: Pesticidal activity against Rhynchophorus ferrugineus (red palm weevil) larvae assessed as mortality at 6 ppm, po at 18 hr post-treatment relative to control; type: functional
[31] = test system: Rhynchophorus ferrugineus; test: Pesticidal activity against adult Rhynchophorus ferrugineus (red palm weevil) assessed as mortality at 0.5 ppm, po at 114 hr post-treatment relative to control; type: functional
[32] = test system: Rhynchophorus ferrugineus; test: Pesticidal activity against Rhynchophorus ferrugineus (red palm weevil) larvae assessed as mortality at 500 ppm administered topically at 72 hr post-treatment; type: functional
[33] = test system: Rhynchophorus ferrugineus; test: Pesticidal activity against Rhynchophorus ferrugineus (red palm weevil) cocoons assessed as mortality at 3.5 ml/l administered by dipping for 3 min measured within 3 days; type: functional
[34] = test system: Rhynchophorus ferrugineus; test: Pesticidal activity against Rhynchophorus ferrugineus (red palm weevil) cocoons assessed as time required for total mortality at 2.5 ml/l administered by dipping for 30 secs; type: functional
[35] = test system: Rhynchophorus ferrugineus; test: Pesticidal activity against Rhynchophorus ferrugineus (red palm weevil) cocoons assessed as time required for total mortality at 3.5 ml/l administered by dipping for 10 secs; type: functional
[36] = test system: Rhynchophorus ferrugineus; test: Pesticidal activity against Rhynchophorus ferrugineus (red palm weevil) cocoons assessed as time required for total mortality at 1.5 ml/l administered by dipping for 10 secs; type: functional
[37] = test system: Rhynchophorus ferrugineus; test: Pesticidal activity against Rhynchophorus ferrugineus (red palm weevil) cocoons assessed as time required for total mortality at 1.5 ml/l administered by dipping for 5 secs; type: functional
[38] = test system: Rhynchophorus ferrugineus; test: Pesticidal activity against adult Rhynchophorus ferrugineus (red palm weevil) assessed as mortality at 1000 ppm administered topically at 72 hr post-treatment; type: functional
[39] = test system: Rhynchophorus ferrugineus; test: Pesticidal activity against adult Rhynchophorus ferrugineus (red palm weevil) assessed as mortality at 100 ppm administered topically at 48 hr post-treatment; type: functional
[40] = test system: Rhynchophorus ferrugineus; test: Pesticidal activity against adult Rhynchophorus ferrugineus (red palm weevil) assessed as mortality at 300 ppm administered topically at 48 hr post-treatment; type: functional
[41] = test system: Rhynchophorus ferrugineus; test: Pesticidal activity against adult Rhynchophorus ferrugineus (red palm weevil) assessed as mortality at 100 ppm administered topically at 36 hr post-treatment; type: functional

`O=[N+]([O-])/N=C1\NCCN1Cc1ccc(Cl)nc1` [IMIDACLOPRID] was tested, and the Activity [1] was 0%, the Activity [2] was 0% and the Activity [3] was 100%. The Activity [4] was 100%, the Activity [5] was 100% and the Activity [6] was 100%. The Activity [7] was 100%, the Activity [8] was 100% and the Activity [9] was 61.9%. The Activity [10] was 72.2%, the Activity [11] was 72.2% and the Activity [12] was 72.2%. The Activity [13] was 44.4%, the Time [14] was 8.1 days and the Time [15] was 2.2 days. For the same compound, the Time [16] was 2.1 days, the Time [17] was 4.2 days and the Time [18] was 10.1 days. For the same compound, the Time [19] was 7.1 days, the Activity [20] was “inactive” and the Activity [21] was 0%. For the same compound, the Activity [22] was “Active”, the Activity [23] was 0% and the Activity [24] was 44.4%. It also gave an Activity [25] of 38.9%, an Activity [26] of 100% and an Activity [27] of 0%. For the same compound, the Activity [28] was 0%, the Activity [29] was 72.2% and the Activity [30] was 100%. The Activity [31] was 72.2%, the Activity [32] was 72.2% and the Activity [33] was 76.7%. The Time [34] was 9.2 days, the Time [35] was 6 days and the Time [36] was 10 days. It also gave a Time [37] of 14.5 days, an Activity [38] of 100% and an Activity [39] of 72.2%. The Activity [40] was 72.2% and the Activity [41] was 38.9%.
